Data on two molecules can be found in EPA's ToxValDB 9.5 (doi:10.2903/j.efsa.2010.1705).

In brackets after ≈: the same amount, converted by molar mass. Some results are limits rather than exact numbers.

In one data set the test system is Colinus virginianus. The settings on record: for LD50: acute, mortality.
Another data set deals with Canidae. Particulars: chronic, Dog Other.
The test system of the next data set is Rattus norvegicus. Particulars: for LD50: acute, mortality; for NOAEL: chronic.
The subject of the next data set is Anas platyrhynchos. Particulars: for LD50: oral.
The test system of a further data set is Daphnia magna. Particulars: chronic/long-term; duration: 21 days; reproduction.

As usually defined, the NOAEL is the highest tested level that showed no adverse finding. Turning to `NC(=O)c1c(Cl)cccc1Cl` [2,6-Dichlorobenzamide], the NOEL with Colinus virginianus (short-term, oral, diet) was 876 mg/kg-day. The NOAEL in the data set with Oryctolagus sp. (reproduction developmental, body weight) came to 30 mg/kg-day; with Canidae (duration: 2 years), 4.5 mg/kg-day; in the data set on Rattus norvegicus, 5.7 mg/kg-day; in the data set with Rattus norvegicus (oral), 13.5 mg/kg-day. In addition, in the data set with Tagia sp. (chronic/long-term, duration: 56 days), the NOEC came to 250 mg/kg. Moreover, the LD50 in the data set with Rattus norvegicus (oral) is 500 mg/kg-day.

Regarding `N#Cc1c(Cl)cccc1Cl` [2,6-Dichlorobenzonitrile], the LD50 in the data set with Anas platyrhynchos (acute, unspecified, clinical signs) was greater than 50 mg/kg-day; in the data set with Anas platyrhynchos (short-term, feed, mortality), greater than 470 mg/kg-day; with Colinus virginianus (oral, diet), 598 mg/kg-day; with Colinus virginianus (oral), 698 mg/kg-day; with Rattus norvegicus (oral), greater than 2000 mg/kg-day. The NOEL in the data set on Anas platyrhynchos (not reported) was 35.5 mg/kg-day; in the data set with Colinus virginianus (reproduction developmental), 14.1 mg/kg-day. Also, the NOEC in the data set on Daphnia magna came out at 1.2 mg/L; with Oncorhynchus mykiss (chronic/long-term, duration: 96 days, growth), 0.66 mg/L. Moreover, the LC50 was determined as 7.2 µg/mL (≈ 41.9 µM) in the data set on Oncorhynchus mykiss (acute, duration: 96 hours, mortality) and 270 mg/kg in the data set on Tagia sp. (acute, duration: 14 days, mortality). Also, the NOAEL came to 45 mg/kg-day with Oryctolagus sp. (developmental, development) and 1 mg/kg-day in the data set with Canidae (duration: 52 weeks, oral, hematological).
